Reference: patent publication US11472791B2 (Incyte Corporation, priority 2019, dated 2022)

Target: CDK2/Cyclin E1 (Homo sapiens (Human), UniProt P24941)
Experiment: CDK2/Cyclin E1 HTRF enzyme activity assay
Format: biochemical
Conditions: 1 mM ATP
Description: Assays are conducted in white 384-well polystyrene plates in a final reaction volume of 8 μL. […] HTRF signals are read after 1 hour at room temperature on a PHERAstar FS plate reader (BMG Labtech). Data is analyzed with IDBS XLFit and GraphPad Prism 5.0 software using a three or four parameter dose response curve to determine IC50 for each compound.

Structure (SMILES)	IC50 [nM]
Cc1cc(CN2CCN(C)CC2)ccc1-n1cc(-c2nc(N[C@H]3CCN(S(=O)(=O)c4ccn(C)n4)C[C@H]3F)ncc2C(F)(F)F)cn1 [Example 103, N-((3R,4S)-3-Fluoro-1-((1-methyl-1H-pyrazol-3-yl)sulfonyl)piperidin-4-yl)-4-(1-(2-methyl-4-((4-methylpiperazin-1-yl)methyl)phenyl)-1H-pyrazol-4-yl)-5-(trifluoromethyl)pyrimidin-2-amine]	< 50
CC(=O)N1CCN(Cc2ccc(-n3cc(-c4nc(N[C@H]5CCN(S(=O)(=O)c6cn(C)cn6)C[C@H]5F)ncc4C(F)(F)F)cn3)c(C)c2)CC1 [Example 104, 1-(4-(4-(4-(2-(((3R,4S)-3-Fluoro-1-((1-methyl-1H-imidazol-4-yl)sulfonyl)piperidin-4-yl)amino)-5-(trifluoromethyl)pyrimidin-4-yl)-1H-pyrazol-1-yl)-3-methylbenzyl)piperazin-1-yl)ethan-1-one]	< 50
CC(=O)N1CCN(Cc2ccc(-n3cc(-c4nc(NC5CCN(S(=O)(=O)c6cn(C)cn6)CC5)ncc4C(F)(F)F)cn3)c(C)c2)CC1 [Example 105, 1-(4-(3-Methyl-4-(4-(2-((1-((1-methyl-1H-imidazol-4-yl)sulfonyl)piperidin-4-yl)amino)-5-(trifluoromethyl)pyrimidin-4-yl)-1H-pyrazol-1-yl)benzyl)piperazin-1-yl)ethan-1-one]	< 50
Cc1cc(CN(C)C)ccc1-n1cc(-c2nc(NC3CCN(S(=O)(=O)c4cn(C)cn4)CC3)ncc2C(F)(F)F)cn1 [Example 106, 4-(1-(4-((Dimethylamino)methyl)-2-methylphenyl)-1H-pyrazol-4-yl)-N-(1-((1-methyl-1H-imidazol-4-yl)sulfonyl)piperidin-4-yl)-5-(trifluoromethyl)pyrimidin-2-amine]	< 50
Cc1cc(CN2CCOCC2)ccc1-n1cc(-c2nc(NC3CCN(S(=O)(=O)c4cn(C)cn4)CC3)ncc2C(F)(F)F)cn1 [Example 107, N-(1-((1-Methyl-1H-imidazol-4-yl)sulfonyl)piperidin-4-yl)-4-(1-(2-methyl-4-(morpholinomethyl)phenyl)-1H-pyrazol-4-yl)-5-(trifluoromethyl)pyrimidin-2-amine]	< 50
CN1CCN(Cc2ccc(-n3cc(-c4nc(NC5CCN(S(=O)(=O)c6cn(C)cn6)CC5)ncc4Cl)cn3)c(Cl)c2)CC1 [Example 108, 5-Chloro-4-(1-(2-chloro-4-((4-methylpiperazin-1-yl)methyl)phenyl)-1H-pyrazol-4-yl)-N-(1-((1-methyl-1H-imidazol-4-yl)sulfonyl)piperidin-4-yl)pyrimidin-2-amine]	< 50
Cc1cc(CN2CCN(C)CC2)ccc1-n1cc(-c2nc(NC3CCN(S(=O)(=O)c4cn(C)cn4)CC3)ncc2Cl)cn1 [Example 109, 5-Chloro-N-(1-((1-methyl-1H-imidazol-4-yl)sulfonyl)piperidin-4-yl)-4-(1-(2-methyl-4-((4-methylpiperazin-1-yl)methyl)phenyl)-1H-pyrazol-4-yl)pyrimidin-2-amine]	< 50
Cc1cc(CN2CCN(C)CC2)ccc1-n1cc(-c2nc(NC3CCN(S(=O)(=O)c4ccn(C)n4)CC3)ncc2Cl)cn1 [Example 110, 5-Chloro-N-(1-((1-methyl-1H-pyrazol-3-yl)sulfonyl)piperidin-4-yl)-4-(1-(2-methyl-4-((4-methylpiperazin-1-yl)methyl)phenyl)-1H-pyrazol-4-yl)pyrimidin-2-amine]	< 50
CN1CCN(Cc2ccc(-n3cc(-c4nc(N[C@H]5CCN(S(C)(=O)=O)C[C@H]5F)ncc4C#N)cn3)c(Cl)c2)CC1 [Example 111, 4-(1-(2-Chloro-4-((4-methylpiperazin-1-yl)methyl)phenyl)-1H-pyrazol-4-yl)-2-(((3R,4S)-3-fluoro-1-(methylsulfonyl)piperidin-4-yl)amino)pyrimidine-5-carbonitrile]	< 50
CCS(=O)(=O)N1CCC(Nc2ncc(C#N)c(-c3cnn(-c4ccc(CNC)cc4Cl)c3)n2)CC1 [Example 112, 4-(1-(2-Chloro-4-((methylamino)methyl)phenyl)-1H-pyrazol-4-yl)-2-((1-(ethylsulfonyl)piperidin-4-yl)amino)pyrimidine-5-carbonitrile]	< 50
CNCc1ccc(-n2cc(-c3nc(NC4CCN(S(=O)(=O)C5CC5)CC4)ncc3C#N)cn2)c(Cl)c1 [Example 114, 4-(1-(2-Chloro-4-((methylamino)methyl)phenyl)-1H-pyrazol-4-yl)-2-((1-(cyclopropylsulfonyl)piperidin-4-yl)amino)pyrimidine-5-carbonitrile]	< 50
CCNCc1ccc(-n2cc(-c3nc(NC4CCN(S(C)(=O)=O)CC4)ncc3C#N)cn2)c(Cl)c1 [Example 115, 4-(1-(2-Chloro-4-((ethylamino)methyl)phenyl)-1H-pyrazol-4-yl)-2-((1-(methylsulfonyl)piperidin-4-yl)amino)pyrimidine-5-carbonitrile]	< 50
CNCc1ccc(-n2cc(-c3nc(N[C@H]4CCN(S(C)(=O)=O)C[C@H]4F)ncc3C#N)cn2)c(Cl)c1 [Example 116, 4-(1-(2-Chloro-4-((methylamino)methyl)phenyl)-1H-pyrazol-4-yl)-2-(((3R,4S)-3-fluoro-1-(methylsulfonyl)piperidin-4-yl)amino)pyrimidine-5-carbonitrile]	< 50
CCS(=O)(=O)N1CC[C@H](Nc2ncc(C#N)c(-c3cnn(-c4ccc(CNC)cc4Cl)c3)n2)[C@H](F)C1 [Example 117, 4-(1-(2-Chloro-4-((methylamino)methyl)phenyl)-1H-pyrazol-4-yl)-2-(((3R,4S)-1-(ethylsulfonyl)-3-fluoropiperidin-4-yl)amino)pyrimidine-5-carbonitrile]	< 50
CCCS(=O)(=O)N1CC[C@H](Nc2ncc(C#N)c(-c3cnn(-c4ccc(CNC)cc4Cl)c3)n2)[C@H](F)C1 [Example 118, 4-(1-(2-Chloro-4-((methylamino)methyl)phenyl)-1H-pyrazol-4-yl)-2-(((3R,4S)-3-fluoro-1-(propylsulfonyl)piperidin-4-yl)amino)pyrimidine-5-carbonitrile]	< 50
CNCc1ccc(-n2cc(-c3nc(N[C@H]4CCN(S(=O)(=O)C(C)C)C[C@H]4F)ncc3C#N)cn2)c(Cl)c1 [Example 119, 4-(1-(2-Chloro-4-((methylamino)methyl)phenyl)-1H-pyrazol-4-yl)-2-(((3R,4S)-3-fluoro-1-(isopropylsulfonyl)piperidin-4-yl)amino)pyrimidine-5-carbonitrile]	< 50
CNCc1ccc(-n2cc(-c3nc(N[C@H]4CCN(S(=O)(=O)C5CC5)C[C@H]4F)ncc3C#N)cn2)c(Cl)c1 [Example 120, 4-(1-(2-Chloro-4-((methylamino)methyl)phenyl)-1H-pyrazol-4-yl)-2-(((3R,4S)-1-(cyclopropylsulfonyl)-3-fluoropiperidin-4-yl)amino)pyrimidine-5-carbonitrile]	< 50
CNCc1ccc(-n2cc(-c3nc(N[C@H]4CCN(S(=O)(=O)C5CCC5)C[C@H]4F)ncc3C#N)cn2)c(Cl)c1 [Example 121, 4-(1-(2-Chloro-4-((methylamino)methyl)phenyl)-1H-pyrazol-4-yl)-2-(((3R,4S)-1-(cyclobutylsulfonyl)-3-fluoropiperidin-4-yl)amino)pyrimidine-5-carbonitrile]	< 50
